Here are results for 24 molecules from patent publication US12077523B2, “N-(isopropyl-triazolyl)pyridinyl)-heteroaryl-carboxamide derivatives and use thereof” (HK INNO.N CORPORATION, priority 2018, dated 2024).

This assay concerns the target T1, ASK-1 enzyme (Homo sapiens, UniProt Q99683).
T1 construct: purchased Signal Chem M13-11G-10
The assay can be described thus: Inhibitory ability against ASK-1 enzyme activity (ADP-Glo Kinase Assay). The format is biochemical. The note with it: 250 μM ATP, MBP substrate, 15 ng ASK-1 enzyme, 30° C. 40 minutes. The protocol:
Experimental Example 1: Assay of Inhibitory Ability Against ASK-1 Enzyme Activity (ADP-Glo™ Kinase Assay)
In order to evaluate the inhibitory ability of the compounds of Examples 1 to 24 against ASK-1 enzyme activity, the following experiment was carried out using ADP-Glo™ (Promega, Cat. No. V9101). Each of the compounds was prepared into a solution at concentrations of 0.32 nM, 1.6 nM, 8 nM, 40 nM, 200 nM, 1,000 nM by adding a kinase buffer solution (40 mM Tris, 20 mM MgCl2, 0.1 mg/mL bovine serum albumin in H2O). Subsequently, 250 μM of ATP (Promega, Cat. No. V915A) and 0.5 μg/μL of MBP substrate (Signal Chem, Cat. No. 42-51N) were added thereto, and the mixture was reacted at 30° C. for 40 minutes in the presence of 15 ng of ASK-1 enzyme (Signal Chem, Cat. No. M13-11G-10). Then, the ADP-Glo™ reagent and a kinase detection reagent were sequentially added thereto and reacted for 40 minutes and 10 minutes, respectively. After completion of the reaction, luminescence was measured using a Synergy™ NEO microplate reader (BioTEK, NEOB-1311189).
The inhibitory ability of the compounds of Examples 1 to 24 against ASK-1 enzyme activity was verified by analyzing data from the measured RLU values. Specifically, the inhibitory ability against ASK-1 enzyme activity was assessed by deriving the residual activity percentage of the ASK-1 enzyme in the samples treated with the compounds at the concentration to be tested, while using the RLU value of the sample not treated with the compounds as a 100% control.
A general note: ADP-Glo first removes unused ATP, then detects ADP through luciferase.

T1 sequence (Q99683 649-946 limits assumed): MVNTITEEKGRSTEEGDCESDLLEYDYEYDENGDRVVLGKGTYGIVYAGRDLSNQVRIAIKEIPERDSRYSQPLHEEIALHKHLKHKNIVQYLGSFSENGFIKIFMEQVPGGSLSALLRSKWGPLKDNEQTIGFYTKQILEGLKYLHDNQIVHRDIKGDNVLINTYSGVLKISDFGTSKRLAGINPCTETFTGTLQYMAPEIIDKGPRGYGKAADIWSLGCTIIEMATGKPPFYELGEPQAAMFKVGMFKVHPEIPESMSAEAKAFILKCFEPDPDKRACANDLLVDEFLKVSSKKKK

For the molecule `Cc1cccc(-c2c[nH]c(C(=O)Nc3cccc(-c4nncn4C(C)C)n3)c2)c1` [Example 2, N-(6-(4-isopropyl-4H-1,2,4-triazol-3-yl)pyridin-2-yl)-4-m-tolyl-1H-pyrrole-2-carboxamide], the IC50 – broadly, the concentration that gives 50% inhibition – was determined as 4 nM.
Regarding `CSc1ccc(-c2ccc(C(=O)Nc3cccc(-c4nncn4C(C)C)n3)[nH]2)cc1` [Example 21, N-(6-(4-isopropyl-4H-1,2,4-triazol-3-yl)pyridin-2-yl)-5-(4-(methylthio)phenyl)-1H-pyrrole-2-carboxamide], the IC50 was 3.1 nM.
On to `CC(C)n1cnnc1-c1cccc(NC(=O)c2ccc(-c3ccc(Cl)cc3)[nH]2)n1` [Example 16, 5-(4-chlorophenyl)-N-(6-(4-isopropyl-4H-1,2,4-triazol-3-yl)pyridin-2-yl)-1H-pyrrole-2-carboxamide], for which the IC50 amounted to 5.4 nM.
For the molecule `CCc1ccc(C(=O)Nc2cccc(-c3nncn3C(C)C)n2)[nH]1` [Example 11, 5-ethyl-N-(6-(4-isopropyl-4H-1,2,4-triazol-3-yl)pyridin-2-yl)-1H-pyrrole-2-carboxamide], the half-maximal inhibitory concentration (IC50) is 49.7 nM.
On to `CCOc1ccc(-c2ccc(C(=O)Nc3cccc(-c4nncn4C(C)C)n3)[nH]2)cc1` [Example 24, 5-(4-ethoxyphenyl)-N-(6-(4-isopropyl-4H-1,2,4-triazol-3-yl)pyridin-2-yl)-1H-pyrrole-2-carboxamide], for which the IC50 was determined as 7.5 nM.
Under `CCc1c[nH]c(C(=O)Nc2cccc(-c3nncn3C(C)C)n2)c1` [Example 4, 4-ethyl-N-(6-(4-isopropyl-4H-1,2,4-triazol-3-yl)pyridin-2-yl)-1H-pyrrole-2-carboxamide] stands 8.3 nM; under `CC(C)n1cnnc1-c1cccc(NC(=O)c2ccc(-c3ccccc3)[nH]2)n1` [Example 9, N-(6-(4-isopropyl-4H-1,2,4-triazol-3-yl)pyridin-2-yl)-5-phenyl-1H-pyrrole-2-carboxamide], 5.8 nM; under `CC(C)n1cnnc1-c1cccc(NC(=O)c2cc(-c3ccccc3)c[nH]2)n1` [Example 6, N-(6-(4-isopropyl-4H-1,2,4-triazol-3-yl)pyridin-2-yl)-4-phenyl-1H-pyrrole-2-carboxamide], 6.5 nM.
In the case of `CC(C)n1cnnc1-c1cccc(NC(=O)c2ccc(-c3ccc(S(C)(=O)=O)cc3)[nH]2)n1` [Example 13, N-(6-(4-isopropyl-4H-1,2,4-triazol-3-yl)pyridin-2-yl)-5-(4-(methylsulfonyl)phenyl)-1H-pyrrole-2-carboxamide], the IC50 amounted to 4.4 nM.
`Cc1ccc(-c2ccc(C(=O)Nc3cccc(-c4nncn4C(C)C)n3)[nH]2)cc1` [Example 10, N-(6-(4-isopropyl-4H-1,2,4-triazol-3-yl)pyridin-2-yl)-5-p-tolyl-1H-pyrrole-2-carboxamide]: the IC50 stood at 10.2 nM.
The same measure for `Cc1ccc(C(=O)Nc2cccc(-c3nncn3C(C)C)n2)[nH]1` [Example 8, N-(6-(4-isopropyl-4H-1,2,4-triazol-3-yl)pyridin-2-yl)-5-methyl-1H-pyrrole-2-carboxamide]: 34.4 nM.
Take `Cc1ccc(-c2ccc(C(=O)Nc3cccc(-c4nncn4C(C)C)n3)[nH]2)cc1F` [Example 19, 5-(3-fluoro-4-methylphenyl)-N-(6-(4-isopropyl-4H-1,2,4-triazol-3-yl)pyridin-2-yl)-1H-pyrrole-2-carboxamide]: the IC50 came to 5.2 nM.
As for `Cc1ccc(-c2c[nH]c(C(=O)Nc3cccc(-c4nncn4C(C)C)n3)c2)cc1` [Example 5, N-(6-(4-isopropyl-4H-1,2,4-triazol-3-yl)pyridin-2-yl)-4-p-tolyl-1H-pyrrole-2-carboxamide], the IC50 came out at 6 nM.
For `CC(C)n1cnnc1-c1cccc(NC(=O)c2ccc[nH]2)n1` [Example 7, N-(6-(4-isopropyl-4H-1,2,4-triazol-3-yl)pyridin-2-yl)-1H-pyrrole-2-carboxamide], the IC50 worked out at 11.6 nM.
For `Cc1ccc(-c2ccc(C(=O)Nc3cccc(-c4nncn4C(C)C)n3)[nH]2)cc1C` [Example 18, 5-(3,4-dimethylphenyl)-N-(6-(4-isopropyl-4H-1,2,4-triazol-3-yl)pyridin-2-yl)-1H-pyrrole-2-carboxamide], the IC50 stood at 4.8 nM.
The same measure for `CC(C)n1cnnc1-c1cccc(NC(=O)c2ccc(-c3cccs3)[nH]2)n1` [Example 17, N-(6-(4-isopropyl-4H-1,2,4-triazol-3-yl)pyridin-2-yl)-5-(thiophene-2-yl)-1H-pyrrole-2-carboxamide]: 7.9 nM; for `COCc1c[nH]c(C(=O)Nc2cccc(-c3nncn3C(C)C)n2)c1` [Example 3, N-(6-(4-isopropyl-4H-1,2,4-triazol-3-yl)pyridin-2-yl)-4-(methoxymethyl)-1H-pyrrole-2-carboxamide]: 7.7 nM.
The same measure for `Cc1cc(C)cc(-c2ccc(C(=O)Nc3cccc(-c4nncn4C(C)C)n3)[nH]2)c1` [Example 15, 5-(3,5-dimethylphenyl)-N-(6-(4-isopropyl-4H-1,2,4-triazol-3-yl)pyridin-2-yl)-1H-pyrrole-2-carboxamide]: 8.5 nM.
Regarding `Cc1c[nH]c(C(=O)Nc2cccc(-c3nncn3C(C)C)n2)c1` [Example 1, N-(6-(4-isopropyl-4H-1,2,4-triazol-3-yl)pyridin-2-yl)-4-methyl-1H-pyrrole-2-carboxamide], the IC50 worked out at 9.9 nM.
For the molecule `CC(C)n1cnnc1-c1cccc(NC(=O)c2ccc(-c3ccc(F)cc3)[nH]2)n1` [Example 23, 5-(4-fluorophenyl)-N-(6-(4-isopropyl-4H-1,2,4-triazol-3-yl)pyridin-2-yl)-1H-pyrrole-2-carboxamide], the IC50 worked out at 5.9 nM.
Take `Cc1ccccc1-c1ccc(C(=O)Nc2cccc(-c3nncn3C(C)C)n2)[nH]1` [Example 22, N-(6-(4-isopropyl-4H-1,2,4-triazol-3-yl)pyridin-2-yl)-5-o-tolyl-1H-pyrrole-2-carboxamide]: the IC50 was 5.1 nM.
The same measure for `Cc1cccc(-c2ccc(C(=O)Nc3cccc(-c4nncn4C(C)C)n3)[nH]2)c1` [Example 14, N-(6-(4-isopropyl-4H-1,2,4-triazol-3-yl)pyridin-2-yl)-5-m-tolyl-1H-pyrrole-2-carboxamide]: 5.8 nM; for `Cc1ncc(-c2ccc(C(=O)Nc3cccc(-c4nncn4C(C)C)n3)[nH]2)cn1` [Example 12, N-(6-(4-isopropyl-4H-1,2,4-triazol-3-yl)pyridin-2-yl)-5-(2-methylpyrimidine-5-yl)-1H-pyrrole-2-carboxamide]: 9.9 nM.
For `CC(C)n1cnnc1-c1cccc(NC(=O)c2ccc(-c3ccc(F)c(Cl)c3)[nH]2)n1` [Example 20, 5-(3-chloro-4-fluorophenyl)-N-(6-(4-isopropyl-4H-1,2,4-triazol-3-yl)pyridin-2-yl)-1H-pyrrole-2-carboxamide], the IC50 is 5.3 nM.
